From patent publication US10308959B2, “Methods, systems, and compositions relating to MiRNA-146a” (Henry Ford Health System, priority 2013, dated 2019)

What was measured:
[1] = tested on: primary rat embryonic OPCs; experiment: QrtPCR of mRNA (MBP, p38MAPK) in primary rat embryonic OPCs; type: cell-based; settings: in the presence of polymyxin B (50 μg/ml); 50 and 100 ng/ml, 4 days
Procedure: Primary rat embryonic OPCs were isolated and prepared according to the method known to the skilled artisan. Briefly, on embryonic day 17, rat embryos were removed from a pregnant Wistar rat in a laminar flow hood. The cortices were dissected out by using microdissecting scissors, rinsed twice in Hank's buffered salt solution and dissociated after digesting with 0.01% trypsin and DNase at 37° C. for 15 min. The digested cells were washed twice, filtered through a 70 mm nylon cell strainer and plated with DMEM containing 20% fetal bovine serum (FBS) in poly-D-lysine coated T75 cell culture flasks (approximately 10 million cells per flask). The cells grew to confluence for 10 days and then were placed on the shaker at 200 r.p.m. at 37° C. for 1 h to remove microglial cells. Subsequently, the cells were left on the shaker for an additional 18-20 h to collect OPCs. The collected OPCs were plated in untreated Petri dishes for 1 h to remove contaminated microglia and astrocytes which attach to the Petri dish more efficiently than OPCs. The unattached OPCs were transferred onto poly-D,L-ornithine-coated Petri dishes at a cell density of 10^4 per/cm2 with a basal chemically defined medium (“BDM”) containing 10 ng/ml platelet-derived growth factor-alpha (“PDGF-AA”) and 10 ng/ml basic fibroblast growth factor (“bFGF”) for 7-10 days.
The mouse primary cultures of OPCs were conditionally immortalized by transformation with a temperature-sensitive large T-antigen into a mouse OPC cell line-N20.1 (21). N20.1 cells were provided by Dr. Anthony Campagnoni (University of California at Los Angeles). N20.1 cells were grown and maintained in Dulbecco's modified Eagle's medium (“DMEM”)/F12 with 1% fetal bovine serum (“FBS”) and G418 (100 μg/ml) at 37° C. For N20.1 cells, transient transfections were performed with Nucleofector kit according to the manufacturer's protocol (Amaxa, Germany). The cells (10^6) were mixed with 1 μg plasmid DNA or 100 pmol of siRNA/oligo nucleotides and pulsed according to the manufacturer's instruction. […]

[2] = tested on: mouse OPC cell line-N20.1; experiment: QrtPCR of mRNA (MBP, p38MAPK) in N20.1 cells; type: cell-based; settings: in the presence of polymyxin B (50 μg/ml); 50 and 100 ng/ml, 4 days
Procedure: The mouse primary cultures of OPCs were conditionally immortalized by transformation with a temperature-sensitive large T-antigen into a mouse OPC cell line-N20.1 (21). N20.1 cells were provided by Dr. Anthony Campagnoni (University of California at Los Angeles). N20.1 cells were grown and maintained in Dulbecco's modified Eagle's medium (“DMEM”)/F12 with 1% fetal bovine serum (“FBS”) and G418 (100 μg/ml) at 37° C. For N20.1 cells, transient transfections were performed with Nucleofector kit according to the manufacturer's protocol (Amaxa, Germany). The cells (10^6) were mixed with 1 μg plasmid DNA or 100 pmol of siRNA/oligo nucleotides and pulsed according to the manufacturer's instruction. The transfected cells were immediately plated into Petri dishes with DMEM containing 1% FBS and incubated at 37° C. for days. Primary rat embryonic OPCs were transiently transfected with Lipofectamine (Invitrogen) overnight, according to the manufacturer's protocol (see Chew et al., J. Neuroscience 30(33): 11011-11027 (2010)). Amounts of DNA and siRNA/oligo nucleotides were used as recommended by the manufacturer. The control plasmid (pcDNA3) was used as a mock transfected control for miR-146a expression vector transfection, and control siRNA (Ambion, a random mixture of oligonucleotides) was used as a mock transfected control for both transfections with Tβ4siRNA and anti-miR-146a inhibitor nucleotides. The cells (10^4 cells/cm^2) were treated with 0, 25, 50, 100 ng/ml of Tβ4 (RegeneRx Biopharmaceuticals Inc., Rockville, Md.). The cells were incubated at 37° C. and fed every 2 days with fresh medium (DMEM containing 1% FBS for N20.1 cells and BDM for primary rat embryonic OPCs) with and without Tβ4 for 4 days. […]
After qrtPCR, agarose gel electrophoresis was performed to verify the quality of the qrtPCR products. No secondary products were detected. […] Values obtained from three independent experiments were analyzed relative to gene expression data using the 2^−ΔΔCT method.

## boiled denatured Tβ4: Tβ4 (100 ng/ml) boiled for 10 minutes to denature the protein, used as a negative control (SDKPDMAEIEKFDKSKLKKTETQEKNPLPSKETIEQEKQAGES; heat-denatured; UniProt P62328 2-44, looked up) [reference compound]
[1]
  expression of MBP, mRNA and protein levels: no effect
[2]
  expression of MBP, mRNA and protein levels: no effect
